Values after ≈ are worked out from the molar mass of the structure shown. Like-named read-outs stand apart in the source and are kept apart here.
What was measured:
Proteus mirabilis 525 = test: In vitro antibacterial activity, two-fold agar-plate dilution method; assay type: cell-based; conditions: HI-agar, 37° C., 20 hours
Experimental: (§1) In vitro antibacterial activity was determined by the two-fold agar-plate dilution method as described below.
(§2) One loopful of an overnight culture of each test strain in Trypticase-soy broth (10^8 viable cells per ml.) was streaked on heart infusion agar (HI-agar) containing-graded concentrations of antibiotics, and the minimal inhibitory concentration (MIC) was expressed in terms of μg/ml. after incubation at 37° C. for 20 hours.

[1] = system: Escherichia coli NIHJ JC-2; test: as above; assay type: cell-based; conditions: NIHJJC2, HI-agar, 37° C., 20 hours
Experimental: as §1, §2

[2] = system: Klebsiella pneumoniae 417; test: as above; assay type: cell-based
Experimental: as §1, §2

Escherichia coli 29 [3] = test: MIC of strain used in the mouse infection test; assay type: cell-based; conditions: Escherichia coli, 29, 20 h
Experimental: as §1
as §2, with “([…])” for “(10^8 viable cells per ml.)”

Escherichia coli 29 [4] = test: Protecting effect against experimental infections in mice; assay type: in vivo, Male ICR strain mice; conditions: s.c. one hour after challenge, one week
Experimental: (§3) Male ICR strain mice aged 4 weeks, each weighing 20-23 g were used in groups of 8 mice. The test bacteria were cultured overnight at 37° C. on HI-agar and then suspended in 2.5-5% mucin solution to obtain the suspension corresponding to each challenge cells. Mice were inoculated intraperitoneally with 0.5 ml of the suspension. A solution containing each test compounds was given subcutaneously to the mice in various dosage one hour after challenge. The ED50 values were calculated from the number of surviving mice for each dosage after one week of observation.

Acute toxicity in mice = assay type: in vivo, ICR strain mice; conditions: 2 g intravenously; 10 mice; one week observation
Experimental: The same strain mice as aforesaid protecting test against experimental infections were used in groups of 10 mice. Test compound (8) (2 g) was administered intravenously to said mice.

Serratia marcesens 4 [5] = test: MIC of strain used in the mouse infection test; assay type: cell-based; conditions: Serratia, 4, 20 h
Experimental: as §1
as §2, with “([…])” for “(10^8 viable cells per ml.)”

Serratia marcesens 4 [6] = test: Protecting effect against experimental infections in mice; assay type: in vivo, Male ICR strain mice; conditions: challenge 1.0 × 10^6 cells/mouse i.p.; s.c. one hour after challenge; one week
Experimental: as §3

Proteus vulgaris 1 = test: In vitro antibacterial activity, two-fold agar-plate dilution method; assay type: cell-based; conditions: HI-agar, 37° C., 20 hours
Experimental: as §1, §2

[7] = system: Proteus vulgaris IAM-1025; test: as above; assay type: cell-based; conditions: IAM1025, HI-agar, 37° C., 20 hours
Experimental: as §1, §2
as §2, with “containing graded concentration” for “containing-graded concentrations”, “test compounds,” for “antibiotics,”, “μg/ml” for “μg/ml.”

[8] = system: Bacillus subtilis ATCC 6633; test: as above; assay type: cell-based; conditions: ATCC6633, HI-agar, 37° C., 20 hours
Experimental: as §1, §2
as §2, with “containing graded” for “containing-graded”, “test compounds,” for “antibiotics,”

Escherichia coli 100 [9] = test: MIC of strain used in the mouse infection test; assay type: cell-based
Experimental: as §1
as §2, with “([…])” for “(10^8 viable cells per ml.)”

Escherichia coli 100 [10] = test: Protecting effect against experimental infections in mice; assay type: in vivo, Male ICR strain mice; conditions: challenge 3.5 × 10^4 cells/mouse i.p.; s.c. one hour after challenge; one week
Experimental: as §3

[11] = system: Pseudomonas aeruginosa NCTC-10490; test: In vitro antibacterial activity, two-fold agar-plate dilution method; assay type: cell-based; conditions: NCTC10490, HI-agar, 37° C., 20 hours
Experimental: as §1
as §2, with “containing graded” for “containing-graded”, “test compounds,” for “antibiotics,”

[12] = Klebsiella pneumoniae 417, HI-agar, 37° C., 20 hours, read-out: MIC
[13] = challenge 6 × 10^6 cells/mouse i.p.

MIC (Proteus mirabilis 525) | MIC [1] | MIC [2, 12] | Compound | also measured
25 µg/mL (≈ 49.5 µM) | 50 µg/mL (≈ 98.9 µM) | 6.25 µg/mL (≈ 12.4 µM) | CO/N=C(/C(=O)NC1C(=O)N2C(C(=O)O)=C(CSc3nnnn3C)CSC12)c1cccc(O)c1 (stereo not shown) [(3)] | 
3.13 µg/mL (≈ 6.12 µM) | 12.5 µg/mL (≈ 24.4 µM) | 6.25 µg/mL (≈ 12.2 µM) | CO/N=C(/C(=O)NC1C(=O)N2C(C(=O)O)=C(CSc3nnnn3C)CSC12)c1csc(N)n1 (stereo not shown) [(7)] | 
0.39 µg/mL (≈ 0.72 µM) | 0.78 µg/mL (≈ 1.44 µM) | 1.56 µg/mL (≈ 2.88 µM) | CO/N=C(\C(=O)NC1C(=O)N2C(C(=O)O)=C(CSc3nncs3)CSC12)c1csc(NC=O)n1 (stereo not shown) [(10)] | 
3.13 µg/mL (≈ 5.78 µM) | 12.5 µg/mL (≈ 23.1 µM) | 3.13 µg/mL (≈ 5.78 µM) | CO/N=C(/C(=O)NC1C(=O)N2C(C(=O)O)=C(CSc3nncs3)CSC12)c1csc(NC=O)n1 (stereo not shown) [(11)] | 
0.78 µg/mL (≈ 1.61 µM) | 1.56 µg/mL (≈ 3.23 µM) | 1.56 µg/mL (≈ 3.23 µM) | CO/N=C(\C(=O)NC1C(=O)N2C(C(=O)O)=C(COC(C)=O)CSC12)c1csc(NC=O)n1 (stereo not shown) [(12)] | MIC (Serratia marcesens 4 [5]; 10^6 viable cells/ml): 6.25 µg/mL; MIC (Serratia marcesens 4 [5]; 10^8 viable cells/ml): 200 µg/mL; ED50 (S.C.) (Serratia marcesens 4 [6]): 0.018 mg/mouse
0.025 µg/mL (≈ 0.0548 µM) | 1.56 µg/mL (≈ 3.42 µM) | 0.5 µg/mL (≈ 1.1 µM) | CO/N=C(\C(=O)NC1C(=O)N2C(C(=O)O)=C(COC(N)=O)CSC12)c1csc(N)n1 (stereo not shown) [(13)] | MIC (Serratia marcesens 4 [5]; 10^6 viable cells/ml): ≤ 0.025 µg/mL; MIC (Serratia marcesens 4 [5]; 10^8 viable cells/ml): 25 µg/mL; ED50 (S.C.) (Serratia marcesens 4 [6]): < 0.156 mg/mouse
0.1 µg/mL (≈ 0.195 µM) | 0.1 µg/mL (≈ 0.195 µM) | 0.2 µg/mL (≈ 0.389 µM) | CO/N=C(\C(=O)NC1C(=O)N2C(C(=O)O)=C(CSc3nncs3)CSC12)c1csc(N)n1 (stereo not shown) [(14)] | MIC (Escherichia coli 29 [3]; 10^6 viable cells/ml): ≤ 0.03 µg/mL; MIC (Escherichia coli 29 [3]; 10^8 viable cells/ml): ≤ 0.03 µg/mL; ED50 (S.C.) (Escherichia coli 29 [4]; [13]): < 0.005 mg/mouse
0.1 µg/mL (≈ 0.242 µM) | 0.78 µg/mL (≈ 1.89 µM) | 0.05 µg/mL (≈ 0.121 µM) | CO/N=C(\C(=O)NC1C(=O)N2C(C(=O)O)=C(CO)CSC12)c1csc(N)n1 (stereo not shown) [(15)] | 
0.39 µg/mL (≈ 0.739 µM) | 0.39 µg/mL (≈ 0.739 µM) | 0.1 µg/mL (≈ 0.19 µM) | CO/N=C(\C(=O)NC1C(=O)N2C(C(=O)O)=C(CSc3nnc(C)s3)CSC12)c1csc(N)n1 (stereo not shown) [(16)] | 
0.39 µg/mL (≈ 0.764 µM) | 0.2 µg/mL (≈ 0.392 µM) | 0.2 µg/mL (≈ 0.392 µM) | CO/N=C(\C(=O)NC1C(=O)N2C(C(=O)O)=C(CSc3nncn3C)CSC12)c1csc(N)n1 (stereo not shown) [(17)] | 
0.025 µg/mL (≈ 0.0453 µM) | 3.13 µg/mL (≈ 5.67 µM) | 0.05 µg/mL (≈ 0.0905 µM) | CO/N=C(\C(=O)NC1C(=O)N2C(C(=O)O)=C(COC(N)=O)CSC12)c1csc(NC(=O)C(F)(F)F)n1 (stereo not shown) [(18)] | 
 |  |  | C#CCO/N=C(\C(=O)NC1C(=O)N2C(C(=O)O)=C(COC(C)=O)CSC12)c1csc(N)n1 (stereo not shown) [(19)] | MIC (Proteus vulgaris 1): 0.78 µg/mL (≈ 1.63 µM); MIC [7]: 0.78 µg/mL (≈ 1.63 µM); MIC [8]: 3.13 µg/mL (≈ 6.53 µM)
 |  |  | CC(C)O/N=C(\C(=O)NC1C(=O)N2C(C(=O)O)=C(COC(N)=O)CSC12)c1csc(N)n1 (stereo not shown) [(20)] | MIC (Proteus vulgaris 1): 0.2 µg/mL (≈ 0.413 µM); MIC [7]: 0.2 µg/mL (≈ 0.413 µM); MIC [8]: 1.56 µg/mL (≈ 3.22 µM)
 |  |  | C=CCn1nnnc1SCC1=C(C(=O)O)N2C(=O)C(NC(=O)/C(=N\OC(C)C)c3csc(N)n3)C2SC1 (stereo not shown) [(21)] | MIC (Proteus vulgaris 1): 0.78 µg/mL (≈ 1.38 µM); MIC [7]: 0.78 µg/mL (≈ 1.38 µM); MIC [8]: 0.78 µg/mL (≈ 1.38 µM)
 |  |  | CC(=O)OCC1=C(C(=O)O)N2C(=O)C(NC(=O)Cc3cccs3)C2SC1 (stereo not shown) [CET, 7(2-Thienyl)acetamidocephalosporanic acid, reference compound] | MIC (Escherichia coli 29 [3]; 10^6 viable cells/ml): 3.13 µg/mL; MIC (Escherichia coli 29 [3]; 10^8 viable cells/ml): 12.5 µg/mL; ED50 (S.C.) (Escherichia coli 29 [4]; [13]): 1.402 mg/mouse
 |  |  | Cc1nnc(SCC2=C(C(=O)O)N3C(=O)C(NC(=O)Cn4cnnn4)C3SC2)s1 (stereo not shown) [CEZ Na, reference compound] | MIC (Escherichia coli 29 [3]; 10^6 viable cells/ml): 0.78 µg/mL; MIC (Escherichia coli 29 [3]; 10^8 viable cells/ml): 3.13 µg/mL; ED50 (S.C.) (Escherichia coli 29 [4]; challenge 5.5 × 10^5 cells/mouse i.p.): 0.182 mg/mouse
 |  |  | CO/N=C(\C(=O)N[C@@H]1C(=O)N2C(C(=O)O)=C(COC(N)=O)CS[C@H]12)c1ccco1 [Cefuroxime, reference compound] | MIC (Serratia marcesens 4 [5]; 10^6 viable cells/ml): 50 µg/mL; MIC (Serratia marcesens 4 [5]; 10^8 viable cells/ml): 400 µg/mL; MIC of used strain (Escherichia coli 100 [9]; 10^6 viable cells/ml): 12.5 µg/mL; MIC (Escherichia coli 100 [9]; 20 h, 10^8 viable cells/ml): 12.5 µg/mL; ED50 (S.C.) (Serratia marcesens 4 [6]): 4.329 mg/mouse; ED50 (S.C.) (Escherichia coli 100 [10]): 1.158 mg/mouse
 |  |  | C=CCO/N=C(\C(=O)NC1C(=O)N2C(C(=O)O)=C(CSc3nnnn3CC=C)CSC12)c1csc(N)n1 (stereo not shown) [Test Compound (3), 7-[2-Allyloxyimino-2-(2-aminothiazol-4-yl)acetamido]-3-(1-allyl-1H-tetrazol-5-yl)thiomethyl-3-cephem-4-carboxylic acid] | MIC [11]: 6.25 µg/mL (≈ 11.1 µM); MIC [8]: 0.78 µg/mL (≈ 1.38 µM)
 |  |  | CO/N=C(\C(=O)NC1C(=O)N2C(C(=O)O)=C(CSc3nc(C)ns3)CSC12)c1csc(N)n1 (stereo not shown) [Test Compound (3), 7-[2-Methoxyimino-2-(2-aminothiazol-4-yl)acetamido]-3-(3-methyl-1,2,4-thiadiazol-5-yl)thiomethyl-3-cephem-4-carboxylic acid] | MIC [8]: 1.56 µg/mL (≈ 2.96 µM)

Compound | MIC (Proteus mirabilis 525) | MIC [1] | MIC [2, 12] | also measured
CO/N=C(\C(=O)NC1C(=O)N2C(C(=O)O)=C(COC(C)=O)CSC12)c1csc(N)n1 (stereo not shown) [(8)] | 0.05 µg/mL (≈ 0.11 µM) | 0.1 µg/mL (≈ 0.22 µM) | 0.1 µg/mL (≈ 0.22 µM) | MIC (Escherichia coli 29 [3]; 10^6 viable cells/ml): ≤ 0.03 µg/mL; MIC (Escherichia coli 29 [3]; 10^8 viable cells/ml): 0.2 µg/mL; ED50 (S.C.) (Escherichia coli 29 [4]; [13]): < 0.005 mg/mouse; Acute toxicity (survival, disorder) (Acute toxicity in mice): All mice survived without showing any disorder
CO/N=C(/C(=O)NC1C(=O)N2C(C(=O)O)=C(COC(C)=O)CSC12)c1csc(N)n1 (stereo not shown) [(9)] | 0.78 µg/mL (≈ 1.71 µM) | 3.13 µg/mL (≈ 6.87 µM) |  | MIC ([2]; Klebsiella pneumoniae, 417, 20 h): 1.56 µg/mL (≈ 3.43 µM)
